Test results from patent US8614239B2 (Novartis AG, priority 2009, dated 2013).

What was measured:
[1] = system: BRAF (V599E)-MEK1-ERK2 cascade (MAP kinase pathway); test: BRAF-MEK-ERK enzymatic cascade assay (TR-FRET); assay type: biochemical, human; settings: compound at 10 μM, 45 min pre-incubation with enzymes, 100 μM ATP, 90 min reaction
Excerpt: A BRAF-MEK-ERK cascade assay is used to evaluate the effects of these compounds as inhibitors of the MAP kinase pathway. An enzymatic cascade assay is set up using recombinant human activated BRAF (V599E) kinase (Cat No. 14-557), human full length unactive MEK1 kinase (Cat No. 14-706) and human full length unactive MAP Kinase 2/ERK2 (Cat No. 14-536) enzymes procured from Upstate. TR-FRET (Time resolved fluorescence resonance energy transfer) detection technology is used for the read out. The assay buffer solution contains 50 mM Tris pH 7.5, 10 mM MgCl2, 1 mM DTT, 0.01% Tween 20, 0.1 nM activated BRAF, 2 nM unactive MEK1, 10 nM unactive ERK2, 100 μM ATP and 500 nM long chain biotin-peptide substrate (LCB-FFKNIVTPRTPPP) in a 384 well format. The kinase reaction is stopped after 90 minutes with 10 mM EDTA and Lance detection mix (2 nM Eu-labeled phospho-serine/threonine antibody (Cat. No. AD0176-Perkin Elmer), 20 nM SA-APC (Cat No. CR130-100-Perkin Elmer) is added. The TR-FRET signal (Excitation at 340 nm, Emission at 615 nm and 665 nm) is read with […] on a Victor3 V fluorimeter. The data is calculated using the ratio of readings at 665 nm to 615 nm. The final concentration of DMSO is 2.5% in the assay. Compounds are screened at 10 μM concentration with pre-incubation of the enzymes in the presence of test compound for 45 minutes. […]
These assays described above are fully detailed in Han, Shulin, et. al., Bioorganic & Medicinal Chemistry Letters (2005) 15, 5467-5473, and in Yeh, et. al., Clin Cancer Res (2007) 13 (5), 1576-1583.
(§1) The compounds of the above Examples were evaluated as inhibitors of the MAP kinase pathway in a BRAF-MEK-ERK enzymatic cascade assay and in a cell viability assay, the results of which are collated in Table 1 below.

A375 cells = test: Cell viability assay in A375 cells (XTT); assay type: cell-based; settings: XTT read-out three days after compound addition
Experimental: The cell viability assay in A375 cells is set up in a 96-well plate format using XTT. XTT is a yellow tetrazolium salt that is cleaved to an orange formazan dye by the mitochondria of metabolically active cells. The procedure allows for rapid determination in a microtitre plate, to give reproducible and sensitive results.
A375 cells are grown in DMEM media containing 10% FBS and 1 mM sodium pyruvate. Cells are trypsinized and seeded at 1000 cells/well. After allowing the cells to adhere overnight, compound is added to the wells at the following final concentrations: 10, 3, 1, 0.3, 0.1, 0.03, 0.01, 0.001, and 0.0001 μM. The assay is set up in triplicates for each concentration. DMSO concentrations are kept at 0.5%/well. Three days after compound addition, the XTT assay is performed. Wells are washed once with PBS. 100 μL of DMEM media without phenol red or FBS is added to each well. A working solution of XTT containing 1 mg/ml XTT and 100 μL of PMS (stock concentration 0.383 mg/ml) per 5 ml is prepared. 50 μL of the working solution of XTT is added to each well. Absorbance of the plate is read at 465 nm using a Spectramax 190 (Molecular Devices). The absorbance from wells with media and XTT alone, but without cells is considered the blank and subtracted from readings from all wells.
Percentage viability is calculated considering the blank subtracted value from wells treated with DMSO alone as 100% viable. G150 values are calculated using Graphpad Prism, using non-linear regression curve fit for sigmoidal dose response (variable slope).
The cell viability assay is further described in Scudiero, et. al., Cancer Research (1988) 48, 4827-4833; Weislow, et. al., J. Natl. Cancer Institute, (1989) 81, 577-586; and Roehm, et. al., J. Immunol. Methods [1991] 142:257-265.
as §1

Row | % inhibition (10 μM) [1] | GI50 (A375 cells; Homo sapiens, A-375, 72 h) | GI50 (A375 cells; listed as 1J-isomer 1) | GI50 (A375 cells; listed as 1J-isomer 2) | Compound
1 | 99% | 119 nM | – | – | O=S(=O)(Nc1c(Nc2ccc(I)cc2F)c(F)c(F)c2ccoc12)C1CC1CO (centres unmarked) [Example 2D, 2-Hydroxymethyl-cyclopropanesulfonic acid [4,5-difluoro-6-(2-fluoro-4-iodo-phenylamino)-benzofuran-7-yl]-amide]
2 | 100% | 12 nM | – | – | O=S(=O)(Nc1c(Nc2ccc(I)cc2F)c(F)c(F)c2ccoc12)C1(CCO)CC1 [Example 2C, 1-(2-Hydroxy-ethyl)-cyclopropanesulfonic acid [4,5-difluoro-6-(2-fluoro-4-iodo-phenylamino)-benzofuran-7-yl]amide]
3 | 100% | 186 nM | – | – | O=S(=O)(Nc1c(Nc2ccc(I)cc2F)c(F)c(F)c2ncoc12)C1(CO)CC1 [Example 1N, N-(4,5-Difluoro-6-(2-fluoro-4-iodophenylamino)benzo[d]oxazol-7-yl)-1-(hydroxymethyl)cyclopropane-1-sulfonamide]
4 | 95% | 3550 nM | – | – | O=S(=O)(Nc1c(Nc2ccc(I)cc2F)c(F)c(F)c2ncoc12)C1(COCc2ccccc2)CC1 [Example 1M, 1-(Benzyloxymethyl)-N-(4,5-difluoro-6-(2-fluoro-4-iodophenylamino)benzo[d]oxazol-7-yl)cyclopropane-1-sulfonamide]
5 | 100% | 5700 nM | – | – | O=S(=O)(Nc1c(Nc2ccc(I)cc2F)c(F)c(F)c2ncoc12)C1CC1COCc1ccccc1 (centres unmarked) [Example 1K, 2-(Benzyloxymethyl)-N-(4,5-difluoro-6-(2-fluoro-4-iodophenylamino)benzo[d]oxazol-7-yl)cyclopropane-1-sulfonamide]
6 | 99% | 29 nM | – | – | O=S(=O)(Nc1c(Nc2ccc(I)cc2F)c(F)c(F)c2ccoc12)C1CC1 [Example 2A, Cyclopropane sulfonic acid [4,5-difluoro-6-(2-fluoro-4-iodo-phenylamino)-benzofuran-7-yl]amide]
7 | 100% | 17 nM | – | – | O=S(=O)(Nc1c(Nc2ccc(I)cc2F)c(F)c(F)c2ccoc12)C1(CC(O)CO)CC1 (centres unmarked) [Example 2B, 1-(2,3-Dihydroxy-propyl)-cyclopropanesulfonic acid [4,5-difluoro-6-(2-fluoro-4-iodo-phenylamino)-benzofuran-7-yl]amide]
8 | 99% | 2700 nM | – | – | O=S(=O)(Nc1c(Nc2ccc(I)cc2F)c(F)c(F)c2ncoc12)C1CC1CO (centres unmarked) [Example 1L, N-(4,5-Difluoro-6-(2-fluoro-4-iodophenylamino)benzo[d]oxazol-7-yl)-2-(hydroxymethyl)cyclopropane-1-sulfonamide]
9 | 99% | – | – | 46 nM | O=S(=O)(Nc1c(Nc2ccc(I)cc2F)c(F)c(F)c2ncoc12)C1(CC(O)CO)CC1 (single isomer, unassigned) [Example 1J-isomer 2, N-(4,5-Difluoro-6-(2-fluoro-4-iodophenylamino)benzo[d]oxazol-7-yl)-1-(2,3-dihydroxypropyl)cyclopropane-1-sulfonamide]

More lines, now with the values behind:

Row | Compound | % inhibition (10 μM) [1] | GI50 (A375 cells; Homo sapiens, A-375, 72 h) | GI50 (A375 cells; listed as 1J-isomer 1) | GI50 (A375 cells; listed as 1J-isomer 2)
10 | Cc1nc2c(F)c(F)c(Nc3ccc(I)cc3F)c(NS(=O)(=O)N(C)C)c2o1 [Example 1B, Dimethylsulfamic acid [4,5-difluoro-6-(2-fluoro-4-iodo-phenylamino)-2-methyl-benzooxazol-7-yl]-amide] | 100% | 2010 nM | – | –
11 | O=S(=O)(Nc1c(Nc2ccc(I)cc2F)c(F)c(F)c2ncoc12)C1(CC(O)CO)CC1 (centres unmarked) [Example 1I, 1-(2,3-Dihydroxy-propyl)-cyclopropanesulfonic acid [4,5-difluoro-6-(2-fluoro-4-iodo-phenylamino)-benzooxazol-7-yl]-amide] | 100% | 47 nM | – | –
12 | O=S(=O)(Nc1c(Nc2ccc(Br)cc2F)c(F)c(F)c2ncoc12)C1CC1 [Example 1G] | 92% | > 10000 nM | – | –
13 | Cc1nc2c(F)c(F)c(Nc3ccc(I)cc3F)c(NS(=O)(=O)C3CC3)c2o1 [Example 1E, Cyclopropanesulfonic acid [4,5-difluoro-6-(2-fluoro-4-iodo-phenylamino)-2-methyl-benzooxazol-7-yl]amide] | 93% | 1000 nM | – | –
14 | C=CCC1(S(=O)(=O)Nc2c(Nc3ccc(I)cc3F)c(F)c(F)c3ncoc23)CC1 [Example 1D, 1-Allyl-cyclopropanesulfonic acid [4,5-difluoro-6-(2-fluoro-4-iodo-phenylamino)-benzooxazol-7-yl]-amide] | 100% | 940 nM | – | –
15 | CN(C)S(=O)(=O)Nc1c(Nc2ccc(Br)cc2F)c(F)c(F)c2ncoc12 [Example 1F, Dimethylsulfamic acid [4,5-difluoro-6-(2-fluoro-4-bromo-phenylamino)-benzooxazol-7-yl]-amide] | 99% | 2370 nM | – | –
16 | O=S(=O)(Nc1c(Nc2ccc(I)cc2F)c(F)c(F)c2ncoc12)C1(CC(O)CO)CC1 (single isomer, unassigned) [Example 1J-isomer 1, N-(4,5-Difluoro-6-(2-fluoro-4-iodophenylamino)benzo[d]oxazol-7-yl)-1-(2,3-dihydroxypropyl)cyclopropane-1-sulfonamide] | 99% | – | 96 nM | –
17 | CN(C)S(=O)(=O)Nc1c(Nc2ccc(I)cc2F)c(F)c(F)c2ncoc12 [Example 1C, Dimethylsulfamic acid [4,5-difluoro-6-(2-fluoro-4-iodo-phenylamino)-benzooxazol-7-yl]amide] | 100% | 646 nM | – | –
18 | Cc1nc2c(F)c(F)c(Nc3ccc(Br)cc3F)c(NS(=O)(=O)C3CC3)c2o1 [Example 1H, Cyclopropanesulfonic acid [6-(4-bromo-2-fluoro-phenylamino)-4,5-difluoro-2-methyl-benzooxazol-7-yl]-amide] | 10% | – | – | –
